Experiments:
Hepatotoxicity [1] = test system: Hepatotoxicity;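 for HepSE cholecystitis: Cholecystitis-related hepatic side effect score drawn from the DILIps (drug-induced liver injury prediction) training data set; call rule not given here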;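 for HepSE elevated liver function tests: hepatic side effect score for raised liver function tests, as recorded in the DILIps training set used for predicting drug-induced liver injury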;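 for HepSE hepatic necrosis: score of hepatic side effects for hepatic necrosis, drawn from the training data of DILIps, a prediction system for drug-induced liver injury; call rule not given here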;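 for HepSE hepatomegaly: hepatic side effect score for hepatomegaly, taken from the training set of the DILIps drug-induced liver injury prediction system; call rule not given here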;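 for HepSE liver fatty: hepatic side effect score for fatty liver, taken from the DILIps training set for predicting drug-induced liver injury; call rule not given here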;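 for HepSE liver function tests abnormal: hepatic side effect score taken from the DILIps (drug-induced liver injury prediction system) training data, here covering abnormal liver function test findings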
Hepatotoxicity [2] = test system: Hepatotoxicity; remark: listed apart in the source;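 for HepSE cholecystitis: Cholecystitis-related hepatic side effect score drawn from the DILIps (drug-induced liver injury prediction) training data set; call rule not given here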;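 for HepSE elevated liver function tests: hepatic side effect score for raised liver function tests, as recorded in the DILIps training set used for predicting drug-induced liver injury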;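 for HepSE hepatic necrosis: score of hepatic side effects for hepatic necrosis, drawn from the training data of DILIps, a prediction system for drug-induced liver injury; call rule not given here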;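 for HepSE hepatomegaly: hepatic side effect score for hepatomegaly, taken from the training set of the DILIps drug-induced liver injury prediction system; call rule not given here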;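 for HepSE liver fatty: hepatic side effect score for fatty liver, taken from the DILIps training set for predicting drug-induced liver injury; call rule not given here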;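 for HepSE liver function tests abnormal: hepatic side effect score taken from the DILIps (drug-induced liver injury prediction system) training data, here covering abnormal liver function test findings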
Hepatotoxicity [3] = test system: Hepatotoxicity; remark: listed apart in the source;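 for HepSE cholecystitis: Cholecystitis-related hepatic side effect score drawn from the DILIps (drug-induced liver injury prediction) training data set; call rule not given here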;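 for HepSE hepatic necrosis: score of hepatic side effects for hepatic necrosis, drawn from the training data of DILIps, a prediction system for drug-induced liver injury; call rule not given here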;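 for HepSE hepatomegaly: hepatic side effect score for hepatomegaly, taken from the training set of the DILIps drug-induced liver injury prediction system; call rule not given here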;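 for HepSE liver fatty: hepatic side effect score for fatty liver, taken from the DILIps training set for predicting drug-induced liver injury; call rule not given here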;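 for HepSE liver function tests abnormal: hepatic side effect score taken from the DILIps (drug-induced liver injury prediction system) training data, here covering abnormal liver function test findings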
Hepatotoxicity [4] = test system: Hepatotoxicity; remark: listed apart in the source;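 for HepSE cholecystitis: Cholecystitis-related hepatic side effect score drawn from the DILIps (drug-induced liver injury prediction) training data set; call rule not given here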;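 for HepSE hepatic necrosis: score of hepatic side effects for hepatic necrosis, drawn from the training data of DILIps, a prediction system for drug-induced liver injury; call rule not given here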;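 for HepSE hepatomegaly: hepatic side effect score for hepatomegaly, taken from the training set of the DILIps drug-induced liver injury prediction system; call rule not given here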;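 for HepSE liver fatty: hepatic side effect score for fatty liver, taken from the DILIps training set for predicting drug-induced liver injury; call rule not given here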;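 for HepSE liver function tests abnormal: hepatic side effect score taken from the DILIps (drug-induced liver injury prediction system) training data, here covering abnormal liver function test findings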
Hepatotoxicity [5] = test system: Hepatotoxicity; remark: listed apart in the source
Hepatotoxicity [6] = test system: Hepatotoxicity; remark: listed apart in the source
Hepatotoxicity [7] = test system: Hepatotoxicity; remark: listed apart in the source
Hepatotoxicity [8] = test system: Hepatotoxicity; remark: listed apart in the source
Hepatotoxicity [9] = test system: Hepatotoxicity; remark: listed apart in the source
Hepatotoxicity [10] = test system: Hepatotoxicity; remark: listed apart in the source
Hepatotoxicity [11] = test system: Hepatotoxicity; remark: listed apart in the source
Hepatotoxicity [12] = test system: Hepatotoxicity; remark: listed apart in the source
Hepatotoxicity [13] = test system: Hepatotoxicity; remark: listed apart in the source
Hepatotoxicity [14] = test system: Hepatotoxicity; remark: listed apart in the source

What does the source list for Cc1cc2c(s1)Nc1ccccc1N=C2N1CCN(C)CC1 [OLANZAPINE]?
HepSE_cholecystitis (Hepatotoxicity [1]): 0; HepSE_liver fatty (Hepatotoxicity [2]): 1; HepSE_hepatic necrosis (Hepatotoxicity [3]): 0; HepSE_hepatitis (Hepatotoxicity [4]): 1; HepSE_hepatomegaly (Hepatotoxicity [5]): 0; HepSE_liver function tests abnormal (Hepatotoxicity [6]): 0; HepSE_elevated liver function tests (Hepatotoxicity [7]): 0; HepSE_cirrhosis (Hepatotoxicity [8]): 0; HepSE_Combined Scores (Hepatotoxicity [9]): 4; HepSE_liver disease (Hepatotoxicity [10]): 0; HepSE_bilirubinemia (Hepatotoxicity [11]): 1; HepSE_cholelithiasis (Hepatotoxicity [12]): 0; HepSE_jaundice (Hepatotoxicity [13]): 1; HepSE_hepatic failure (Hepatotoxicity [14]): 0

How did the HepSE_cholecystitis (Hepatotoxicity [1]) turn out when CCN(CC)CCCC(C)Nc1ccnc2cc(Cl)ccc12 (stereo unspecified) [CHLOROQUINE] was run?
Its HepSE_cholecystitis is 0.

What about the HepSE_liver fatty (Hepatotoxicity [2]) of the same compound?
The HepSE_liver fatty was 0.

And the HepSE_hepatic necrosis (Hepatotoxicity [3])?
The HepSE_hepatic necrosis was 0.

What about the HepSE_hepatitis (Hepatotoxicity [4]) of the same compound?
The HepSE_hepatitis was 0.

And the HepSE_hepatomegaly (Hepatotoxicity [5])?
The HepSE_hepatomegaly was 0.

What about the “HepSE_liver function tests abnormal” value (Hepatotoxicity [6]) of the same compound?
The value was 0.

What about the “HepSE_elevated liver function tests” value (Hepatotoxicity [7]) of the same compound?
The value was 0.

What about the HepSE_cirrhosis (Hepatotoxicity [8]) of the same compound?
The HepSE_cirrhosis was 0.

What about the “HepSE_Combined Scores” value (Hepatotoxicity [9]) of the same compound?
Its value is 0.

And the HepSE_liver disease (Hepatotoxicity [10])?
Its HepSE_liver disease is 0.

And the HepSE_bilirubinemia (Hepatotoxicity [11])?
Its HepSE_bilirubinemia is 0.

And the HepSE_cholelithiasis (Hepatotoxicity [12])?
The HepSE_cholelithiasis was 0.

What about the HepSE_jaundice (Hepatotoxicity [13]) of the same compound?
Its HepSE_jaundice is 0.

And the HepSE_hepatic failure (Hepatotoxicity [14])?
The HepSE_hepatic failure was 0.

COc1cc(C(=O)NS(=O)(=O)c2ccccc2C)ccc1Cc1cn(C)c2ccc(NC(=O)OC3CCCC3)cc12 [ZAFIRLUKAST] was tested. Which HepSE_cholecystitis (Hepatotoxicity [1]) did it give?
Its HepSE_cholecystitis is 0.

What about the HepSE_liver fatty (Hepatotoxicity [2]) of the same compound?
The HepSE_liver fatty was 0.

What about the HepSE_hepatic necrosis (Hepatotoxicity [3]) of the same compound?
Its HepSE_hepatic necrosis is 0.

And the HepSE_hepatitis (Hepatotoxicity [4])?
The HepSE_hepatitis was 1.

And the HepSE_hepatomegaly (Hepatotoxicity [5])?
The HepSE_hepatomegaly was 0.

What about the “HepSE_liver function tests abnormal” value (Hepatotoxicity [6]) of the same compound?
Its value is 0.

And the “HepSE_elevated liver function tests” value (Hepatotoxicity [7])?
The value was 1.

And the HepSE_cirrhosis (Hepatotoxicity [8])?
The HepSE_cirrhosis was 0.

What about the “HepSE_Combined Scores” value (Hepatotoxicity [9]) of the same compound?
The value was 4.

And the HepSE_liver disease (Hepatotoxicity [10])?
Its HepSE_liver disease is 0.

What about the HepSE_bilirubinemia (Hepatotoxicity [11]) of the same compound?
The HepSE_bilirubinemia was 1.

And the HepSE_cholelithiasis (Hepatotoxicity [12])?
Its HepSE_cholelithiasis is 0.

And the HepSE_jaundice (Hepatotoxicity [13])?
Its HepSE_jaundice is 0.

What about the HepSE_hepatic failure (Hepatotoxicity [14]) of the same compound?
Its HepSE_hepatic failure is 1.

OC(CCN1CCCCC1)(c1ccccc1)C1CC2C=CC1C2 (stereo unspecified) [BIPERIDEN] was tested. Which HepSE_cholecystitis (Hepatotoxicity [1]) did it give?
The HepSE_cholecystitis was 0.

And the HepSE_liver fatty (Hepatotoxicity [2])?
Its HepSE_liver fatty is 0.

And the HepSE_hepatic necrosis (Hepatotoxicity [3])?
Its HepSE_hepatic necrosis is 0.

What about the HepSE_hepatitis (Hepatotoxicity [4]) of the same compound?
The HepSE_hepatitis was 0.

What about the HepSE_hepatomegaly (Hepatotoxicity [5]) of the same compound?
The HepSE_hepatomegaly was 0.

And the “HepSE_liver function tests abnormal” value (Hepatotoxicity [6])?
The value was 0.

What about the “HepSE_elevated liver function tests” value (Hepatotoxicity [7]) of the same compound?
Its value is 0.

And the HepSE_cirrhosis (Hepatotoxicity [8])?
Its HepSE_cirrhosis is 0.

And the “HepSE_Combined Scores” value (Hepatotoxicity [9])?
Its value is 0.

And the HepSE_liver disease (Hepatotoxicity [10])?
Its HepSE_liver disease is 0.

What about the HepSE_bilirubinemia (Hepatotoxicity [11]) of the same compound?
Its HepSE_bilirubinemia is 0.

What about the HepSE_cholelithiasis (Hepatotoxicity [12]) of the same compound?
The HepSE_cholelithiasis was 0.

What about the HepSE_jaundice (Hepatotoxicity [13]) of the same compound?
The HepSE_jaundice was 0.

And the HepSE_hepatic failure (Hepatotoxicity [14])?
Its HepSE_hepatic failure is 0.

How did the HepSE_cholecystitis (Hepatotoxicity [1]) turn out when CCc1ccc(CCOc2ccc(CC3SC(=O)NC3=O)cc2)nc1 (stereo unspecified) [PIOGLITAZONE] was run?
Its HepSE_cholecystitis is 0.

And the HepSE_liver fatty (Hepatotoxicity [2])?
The HepSE_liver fatty was 0.

And the HepSE_hepatic necrosis (Hepatotoxicity [3])?
The HepSE_hepatic necrosis was 0.

And the HepSE_hepatitis (Hepatotoxicity [4])?
Its HepSE_hepatitis is 1.

And the HepSE_hepatomegaly (Hepatotoxicity [5])?
Its HepSE_hepatomegaly is 0.

And the “HepSE_liver function tests abnormal” value (Hepatotoxicity [6])?
The value was 1.

What about the “HepSE_elevated liver function tests” value (Hepatotoxicity [7]) of the same compound?
Its value is 0.

What about the HepSE_cirrhosis (Hepatotoxicity [8]) of the same compound?
The HepSE_cirrhosis was 0.

What about the “HepSE_Combined Scores” value (Hepatotoxicity [9]) of the same compound?
Its value is 3.

What about the HepSE_liver disease (Hepatotoxicity [10]) of the same compound?
The HepSE_liver disease was 0.

What about the HepSE_bilirubinemia (Hepatotoxicity [11]) of the same compound?
The HepSE_bilirubinemia was 0.

And the HepSE_cholelithiasis (Hepatotoxicity [12])?
The HepSE_cholelithiasis was 0.

And the HepSE_jaundice (Hepatotoxicity [13])?
The HepSE_jaundice was 0.

What about the HepSE_hepatic failure (Hepatotoxicity [14]) of the same compound?
Its HepSE_hepatic failure is 1.

Nc1ccn([C@@H]2O[C@H](CO)[C@@H](O)[C@@H]2O)c(=O)n1 [CYTARABINE] was tested. Which HepSE_cholecystitis (Hepatotoxicity [1]; Liver) did it give?
The HepSE_cholecystitis was 0.

What about the HepSE_liver fatty (Hepatotoxicity [2]; Liver) of the same compound?
The HepSE_liver fatty was 0.

What about the HepSE_hepatic necrosis (Hepatotoxicity [3]; Liver) of the same compound?
The HepSE_hepatic necrosis was 0.

And the HepSE_hepatitis (Hepatotoxicity [4]; Liver)?
Its HepSE_hepatitis is 0.

What about the HepSE_hepatomegaly (Hepatotoxicity [5]; Liver) of the same compound?
The HepSE_hepatomegaly was 0.

What about the “HepSE_liver function tests abnormal” value (Hepatotoxicity [6]; Liver) of the same compound?
Its value is 0.

And the “HepSE_elevated liver function tests” value (Hepatotoxicity [7]; Liver)?
The value was 0.

And the HepSE_cirrhosis (Hepatotoxicity [8]; Liver)?
Its HepSE_cirrhosis is 0.

What about the “HepSE_Combined Scores” value (Hepatotoxicity [9]; Liver) of the same compound?
The value was 2.

And the HepSE_liver disease (Hepatotoxicity [10]; Liver)?
The HepSE_liver disease was 0.

What about the HepSE_bilirubinemia (Hepatotoxicity [11]; Liver) of the same compound?
The HepSE_bilirubinemia was 1.

And the HepSE_cholelithiasis (Hepatotoxicity [12]; Liver)?
Its HepSE_cholelithiasis is 0.

What about the HepSE_jaundice (Hepatotoxicity [13]; Liver) of the same compound?
Its HepSE_jaundice is 1.

What about the HepSE_hepatic failure (Hepatotoxicity [14]; Liver) of the same compound?
The HepSE_hepatic failure was 0.

Which results are given for [Cl-].[K+] [POTASSIUM CHLORIDE]?
HepSE_cholecystitis (Hepatotoxicity [1]): 0; HepSE_liver fatty (Hepatotoxicity [2]): 0; HepSE_hepatic necrosis (Hepatotoxicity [3]): 0; HepSE_hepatitis (Hepatotoxicity [4]): 0; HepSE_hepatomegaly (Hepatotoxicity [5]): 0; HepSE_liver function tests abnormal (Hepatotoxicity [6]): 0; HepSE_elevated liver function tests (Hepatotoxicity [7]): 0; HepSE_cirrhosis (Hepatotoxicity [8]): 0; HepSE_Combined Scores (Hepatotoxicity [9]): 0; HepSE_liver disease (Hepatotoxicity [10]): 0; HepSE_bilirubinemia (Hepatotoxicity [11]): 0; HepSE_cholelithiasis (Hepatotoxicity [12]): 0; HepSE_jaundice (Hepatotoxicity [13]): 0; HepSE_hepatic failure (Hepatotoxicity [14]): 0

How did the HepSE_cholecystitis (Hepatotoxicity [1]) turn out when CO/N=C(\C(=O)N[C@@H]1C(=O)N2C(C(=O)OCOC(=O)C(C)(C)C)=C(/C=C\c3scnc3C)CS[C@H]12)c1csc(N)n1 [CEFDITOREN PIVOXIL] was run?
The HepSE_cholecystitis was 0.

What about the HepSE_liver fatty (Hepatotoxicity [2]) of the same compound?
The HepSE_liver fatty was 0.

What about the HepSE_hepatic necrosis (Hepatotoxicity [3]) of the same compound?
Its HepSE_hepatic necrosis is 0.

What about the HepSE_hepatitis (Hepatotoxicity [4]) of the same compound?
The HepSE_hepatitis was 0.

What about the HepSE_hepatomegaly (Hepatotoxicity [5]) of the same compound?
Its HepSE_hepatomegaly is 0.

And the “HepSE_liver function tests abnormal” value (Hepatotoxicity [6])?
Its value is 1.

And the “HepSE_elevated liver function tests” value (Hepatotoxicity [7])?
Its value is 0.

What about the HepSE_cirrhosis (Hepatotoxicity [8]) of the same compound?
The HepSE_cirrhosis was 0.

And the “HepSE_Combined Scores” value (Hepatotoxicity [9])?
Its value is 1.

And the HepSE_liver disease (Hepatotoxicity [10])?
The HepSE_liver disease was 0.

What about the HepSE_bilirubinemia (Hepatotoxicity [11]) of the same compound?
The HepSE_bilirubinemia was 0.

What about the HepSE_cholelithiasis (Hepatotoxicity [12]) of the same compound?
The HepSE_cholelithiasis was 0.

And the HepSE_jaundice (Hepatotoxicity [13])?
The HepSE_jaundice was 0.

And the HepSE_hepatic failure (Hepatotoxicity [14])?
Its HepSE_hepatic failure is 0.

With CCCCCN(C)CCC(O)(P(=O)(O)O)P(=O)(O)O [IBANDRONIC ACID] as the compound, how does the HepSE_cholecystitis (Hepatotoxicity [1]) read?
Its HepSE_cholecystitis is 0.

What about the HepSE_liver fatty (Hepatotoxicity [2]) of the same compound?
Its HepSE_liver fatty is 0.

What about the HepSE_hepatic necrosis (Hepatotoxicity [3]) of the same compound?
Its HepSE_hepatic necrosis is 0.

And the HepSE_hepatitis (Hepatotoxicity [4])?
The HepSE_hepatitis was 0.

What about the HepSE_hepatomegaly (Hepatotoxicity [5]) of the same compound?
The HepSE_hepatomegaly was 0.

What about the “HepSE_liver function tests abnormal” value (Hepatotoxicity [6]) of the same compound?
Its value is 0.

What about the “HepSE_elevated liver function tests” value (Hepatotoxicity [7]) of the same compound?
The value was 0.

What about the HepSE_cirrhosis (Hepatotoxicity [8]) of the same compound?
Its HepSE_cirrhosis is 0.

And the “HepSE_Combined Scores” value (Hepatotoxicity [9])?
The value was 0.

What about the HepSE_liver disease (Hepatotoxicity [10]) of the same compound?
Its HepSE_liver disease is 0.

What about the HepSE_bilirubinemia (Hepatotoxicity [11]) of the same compound?
The HepSE_bilirubinemia was 0.

What about the HepSE_cholelithiasis (Hepatotoxicity [12]) of the same compound?
The HepSE_cholelithiasis was 0.

What about the HepSE_jaundice (Hepatotoxicity [13]) of the same compound?
The HepSE_jaundice was 0.

And the HepSE_hepatic failure (Hepatotoxicity [14])?
The HepSE_hepatic failure was 0.

From ChEMBL document CHEMBL1909294, “Translating clinical findings into knowledge in drug safety evaluation--drug induced liver injury prediction system (DILIps)” (PLoS Comput Biol, 2011)
